Holding throughout (type): functional
For experiment [1], the system named is Lewis lung carcinoma cell line. Put plainly: In vivo antitumor activity against mouse Lewis lung carcinoma cells xenografted in mouse assessed as suppression of tumor growth at 100 mg/kg.
Experiment [2] in a line: In vivo antitumor activity against ascites carcinoma in mouse.
Experiment [3] concerns CCRF S-180. Put plainly: In vivo antitumor activity against mouse S180 cells xenografted in mouse assessed as suppression of tumor growth at 70 mg/kg.
For experiment [4], the system named is Ehrlich. Put plainly: In vivo antitumor activity against Ehrlich ascite carcinoma in mouse.
In experiment [5] the test system is Ehrlich. Put plainly: In vivo antitumor activity against mouse Ehrlich ascite carcinoma cells xenografted in mouse assessed as suppression of tumor growth at 70 mg/kg.

For one molecule, Activity and LD50 results are on record in ChEMBL document CHEMBL1151407, “Bisbenzylisoquinoline Alkaloids” (1983).

One may read the LD50 as the dose expected to kill half of the subjects tested. A high value points to a less toxic substance. For `COc1ccc2cc1Oc1ccc(cc1)C[C@H]1c3cc(OC)c(OC)c(c3CCN1C)Oc1c(OC)c(OC)cc3c1[C@H](C2)N(C)CC3` [THALIDASINE], the Activity in experiment [1] amounted to 58%; in experiment [3] it was 20%; in experiment [5], 50%. Further, the median lethal dose (LD50) in experiment [2] was determined as 300 mg/kg; in experiment [4], 520 mg/kg.
